The values below come from patent US8288555B2, “Alkene derivatives as sphingosine 1-phosphate (S1P) receptor modulators” (Allergan, Inc., priority 2010, dated 2012).

The target of the test is T1, human S1P4 receptor (Homo sapiens, UniProt O95977).
T1 construct: expressed in transfected cells; membranes used
T1 sequence (O95977 1-384): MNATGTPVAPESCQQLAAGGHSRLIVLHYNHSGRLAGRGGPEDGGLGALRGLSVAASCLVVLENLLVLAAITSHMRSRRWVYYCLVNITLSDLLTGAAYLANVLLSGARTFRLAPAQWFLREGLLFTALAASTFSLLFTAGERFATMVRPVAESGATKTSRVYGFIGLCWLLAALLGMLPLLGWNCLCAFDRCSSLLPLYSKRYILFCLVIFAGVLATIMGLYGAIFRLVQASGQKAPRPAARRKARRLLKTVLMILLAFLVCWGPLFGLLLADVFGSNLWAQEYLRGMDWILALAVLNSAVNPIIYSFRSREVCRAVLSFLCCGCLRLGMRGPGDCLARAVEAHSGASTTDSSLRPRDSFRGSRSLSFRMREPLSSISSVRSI
Description: GTP γ35S binding assay for S1P4 activity. As to conditions: activity potency at the S1P4 receptor from GTP γ35S binding; membranes of cells stably expressing the S1P4 receptor; test compounds 0.08 to 5,000 nM. Format: biochemical. On the procedure:
Compounds were synthesized and tested for S1P4 activity using the GTP γ^35S binding assay. These compounds may be assessed for their ability to activate or block activation of the human S1P4 receptor in cells stably expressing the S1P4 receptor.
GTP γ^35S binding was measured in the medium containing (mM) HEPES 25, pH 7.4, MgCl2 10, NaCl 100, dithitothreitol 0.5, digitonin 0.003%, 0.2 nM GTP γ^35S, and 5 μg membrane protein in a volume of 150 μl. Test compounds were included in the concentration range from 0.08 to 5,000 nM unless indicated otherwise. Membranes were incubated with 100 μM 5′-adenylylimmidodiphosphate for 30 min, and subsequently with 10 μM GDP for 10 min on ice. Drug solutions and membrane were mixed, and then reactions were initiated by adding GTP γ^35S and continued for 30 min at 25° C. Reaction mixtures were filtered over Whatman GF/B filters under vacuum, and washed three times with 3 mL of ice-cold buffer (HEPES 25, pH7.4, MgCl2 10 and NaCl 100). Filters were dried and mixed with scintillant, and counted for ^35S activity using a β-counter. Agonist-induced GTP γ^35S binding was obtained by subtracting that in the absence of agonist. Binding data were analyzed using a non-linear regression method. In case of antagonist assay, the reaction mixture contained 10 nM S1P in the presence of test antagonist at concentrations ranging from 0.08 to 5000 nM.

In the case of `CNc1ncccc1-c1noc(/C(=C/c2ccc(C)c(C)c2)c2cccs2)n1` [3-{5-[(Z)-2-(3,4-dimethylphenyl)-1-(2-thienyl)vinyl]-1,2,4-oxadiazol-3-yl}-N-methylpyridin-2-amine], the EC50 was 140 nM.

Consider `CNc1ncccc1-c1noc(/C(=C/c2ccc(C)c(C)c2)c2cccc(F)c2)n1` [Compound 5, 3-{5-[(E)-2-(3,4-Dimethylphenyl)-1-(3-fluorophenyl)vinyl]-1,2,4-oxadiazol-3-yl}-N-methylpyridin-2-amine], for which the half-maximal effective concentration (EC50) amounted to 375 nM.

Turning to `CNc1ncccc1-c1noc(/C(=C/c2ccc(C)c(C)c2)c2ccsc2)n1` [Compound 8, 3-{5-[(E)-2-(3,4-Dimethylphenyl)-1-(3-thienyl)vinyl]-1,2,4-oxadiazol-3-yl}-N-methylpyridin-2-amine], the EC50 was determined as 665 nM.

As for `CNc1ncccc1-c1noc(/C(=C/c2ccc(C)c(C)c2)c2cccc(OC)c2)n1` [Compound 15, 3-{5-[(E)-2-(3,4-Dimethylphenyl)-1-(3-methoxyphenyl)vinyl]-1,2,4-oxadiazol-3-yl}-N-methylpyridin-2-amine], the response was half-maximal at 1780 nM (EC50).

Regarding `CNc1ncccc1-c1noc(/C(=C/c2ccc(C)c(C)c2)c2cccc(C)c2)n1` [Compound 6, 3-{5-[(E)-2-(3,4-Dimethylphenyl)-1-(3-methylphenyl)vinyl]-1,2,4-oxadiazol-3-yl}-N-methylpyridin-2-amine], the EC50 worked out at 2020 nM.

In the case of `CNc1ncccc1-c1noc(/C(=C/c2ccc(C)c(C)c2)c2ccccc2OC)n1` [Compound 16, 3-{5-[(E)-2-(3,4-Dimethylphenyl)-1-(2-methoxyphenyl)vinyl]-1,2,4-oxadiazol-3-yl}-N-methylpyridin-2-amine], the EC50 came out at 501 nM.

For the molecule `CNc1ncccc1-c1noc(/C(=C/c2ccc(C)cc2)c2cccs2)n1` [Compound 10, N-Methyl-3-{5-[(Z)-2-(4-methylphenyl)-1-(2-thienyl)vinyl]-1,2,4-oxadiazol-3-yl}pyridin-2-amine], the EC50 stood at 635 nM.

For the molecule `CNc1ncccc1-c1noc(/C(=C/c2ccc(C)c(C)c2)c2cccc(Cl)c2)n1` [Compound 7, 3-{5-[(E)-1-(3-Chlorophenyl)-2-(3,4-dimethylphenyl)vinyl]-1,2,4-oxadiazol-3-yl}-N-methylpyridin-2-amine], the EC50 was 79.3 nM.

Molecule `CNc1ncccc1-c1noc(/C(=C/c2ccccc2C)c2cccc(Cl)c2)n1` [Compound 20, 3-{5-[(E)-1-(3-Chlorophenyl)-2-(2-methylphenyl)vinyl]-1,2,4-oxadiazol-3-yl}-N-methylpyridin-2-amine] yielded an EC50 of 2000 nM.

With `CNc1ncccc1-c1noc(/C(=C/c2ccc(C)c(C)c2)c2cc(F)cc(F)c2)n1` [Compound 14, 3-{5-[(E)-1-(3,5-Difluorophenyl)-2-(3,4-dimethylphenyl)vinyl]-1,2,4-oxadiazol-3-yl}-N-methylpyridin-2-amine], the EC50 is 550 nM.

As usually defined, the EC50 is the concentration at which the effect is half-maximal.
